# Source: ChEMBL document CHEMBL1150450, “Synthesis and antiangiogenic activity of new carbohydrate derivatives” (Bioorg Med Chem Lett, 1996)
# “And” between values parts separate entries of the source, which are not always exact repeats. Identical values can stand only once.
# Key:
# A-431 = assay: In vitro antiproliferative effect against A431 human epidermoid carcinoma cells; assay type: functional, cell-based
# Gallus gallus = species: Gallus gallus; assay: Antiangiogenic activity using CAM assay, activity expressed as % of eggs with avascular zone (125 nM).; assay type: functional
# [1] = Antiproliferative effect against primary endothelial cells from pork aorta(ECPA); assay type: functional, cell-based, Sus scrofa, Endothelial cell
# [2] = Compound was tested for antiproliferative effect against primary endothelial cells from pork aorta(ECPA) with first-phase IC50 of 0.001 nM; details: Sus scrofa, Endothelial cell
# [3] = Compound was tested for antiproliferative effect against primary endothelial cells from pork aorta(ECPA) with first-phase IC50 of 0.1 nM; details: Sus scrofa, Endothelial cell
# [4] = Compound was tested for antiproliferative effect against primary endothelial cells from pork aorta (ECPA) with first-phase IC50 of 0.1 nM; details: Sus scrofa, Endothelial cell
# [5] = Compound was tested for antiproliferative effect against primary endothelial cells from pork aorta(ECPA); assay type: functional, cell-based; details: Sus scrofa, Endothelial cell
"IC50 (A-431; Homo sapiens, A-431)",Structure (SMILES),Eggs (Gallus gallus),"IC50 ([1]; Sus scrofa, Endothelial cell)",further results
> 500 µM,CO[C@@H]1C(=O)CO[C@]2(COC(C)(C)O2)[C@@]1(O)C1(C)CO1 (some centres not stated),48%,119 µM,–
19 µM,CO[C@@H]1[C@H](OC(=O)NC(=O)CCl)CO[C@]2(COC(C)(C)O2)[C@@]1(O)C1OC1CCCc1ccccc1 (some centres not stated),79% and 76%,68 µM,IC50 (A-431; a-431): 29 µM; IC50 ([1]; endothelial cell): 90 µM
38 µM,CO[C@@H]1[C@H](OC(=O)NC(=O)CCl)CO[C@]2(COC(C)(C)O2)[C@@]1(OC(=O)NC(=O)CCl)C1(C)CO1 (some centres not stated),62%,122 µM,–
> 500 µM,CNC(=O)O[C@@H]1CO[C@]2(COC(C)(C)O2)[C@@](O)(C2(C)CO2)[C@@H]1OC (some centres not stated),51%,195 µM,–
1.2 µM,CO[C@@H]1[C@H](OC(=O)NC(=O)CCl)CO[C@]2(COC(C)(C)O2)[C@]1(CCCCCc1ccccc1)OC(=O)NC(=O)CCl,88%,0.8 µM,–
2 µM,CO[C@@H]1[C@H](OC(=O)NC(=O)CCl)CO[C@]2(COC(=O)O2)[C@]1(CCCCCc1ccccc1)OC(=O)NC(=O)CCl,80%,2.4 µM,–
39 µM,CO[C@@H]1[C@H](OC(=O)NC(=O)CCl)CO[C@]2(COC(C)(C)O2)[C@@]1(OC)C1(C)CO1 (some centres not stated),16%,175 µM,–
5.6 µM,CO[C@@H]1[C@H](OC(=O)NC(=O)CCl)CO[C@]2(COC(C)(C)O2)[C@@]1(OC(=O)NC(=O)CCl)C(C)C,95%,23 µM,–
> 500 µM,C=C(C)[C@@]1(O)[C@H](OC)[C@H](OC)CO[C@]12CO2,32%,> 500 µM,–
48 µM,CO[C@@H]1[C@H](OC(=O)/C=C/C=C/C=C/C=C/C(=O)O)CC[C@]2(CO2)[C@H]1[C@@]1(C)O[C@@H]1CC=C(C)C [FUMAGILLIN],80%,–,IC50 [3]: 100 µM
> 500 µM,CO[C@@H]1[C@H](OC(=O)NC(=O)c2ccccc2)CO[C@]2(COC(C)(C)O2)[C@@]1(O)C1(C)CO1 (some centres not stated),55%,363 µM,–
84 µM,CO[C@@H]1[C@H](OC(=O)NC(=O)CCl)CO[C@]2(COC(C)(C)O2)[C@@]1(O)C1(C)CO1 (some centres not stated),84%,57 µM,–
11 µM,CO[C@@H]1[C@H](OC(=O)NC(=O)CCl)CO[C@]2(COC(=O)O2)[C@@]1(O)CCCCCc1ccccc1,95%,–,IC50 [5]: 14 µM
44 µM,CO[C@@H]1[C@H](OC(=O)NC(=O)CCl)CO[C@]2(COC(C)(C)O2)[C@@]1(O)C1OC1CC(C)C (some centres not stated),75% and 68%,124 µM,IC50 ([1]; endothelial cell): 178 µM
> 500 µM,CO[C@@H]1[C@H](OC(=O)NCCCl)CO[C@]2(COC(C)(C)O2)[C@@]1(O)C1(C)CO1 (some centres not stated),10%,278 µM,–
442 µM,CCOC(=O)CNC(=O)O[C@@H]1CO[C@]2(COC(C)(C)O2)[C@@](O)(C2OC2CC(C)C)[C@@H]1OC (some centres not stated),21%,343 µM,–
471 µM,CCOC(=O)NC(=O)O[C@@H]1CO[C@]2(COC(C)(C)O2)[C@@](O)(C2OC2CC(C)C)[C@@H]1OC (some centres not stated),11%,398 µM,–
3.7 µM,CO[C@@H]1[C@H](OC(=O)NC(=O)CCl)CO[C@]2(COC(C)(C)O2)[C@@]1(OC(=O)NC(=O)CCl)C1OC1CCCc1ccccc1 (some centres not stated),63%,16 µM,–

Structure (SMILES),"IC50 (A-431; Homo sapiens, A-431)",Eggs (Gallus gallus),"IC50 ([1]; Sus scrofa, Endothelial cell)",further results
CO[C@@H]1[C@H](OC(=O)NC(=O)CCl)CC[C@]2(CO2)[C@H]1[C@@]1(C)O[C@@H]1CC=C(C)C [O-CHLOROACETYLCARBAMOYLFUMAGILLOL],5.3 µM,85%,–,IC50 [2]: 12 µM
CO[C@@H]1C(=O)CC[C@]2(CO2)[C@@]1(O)[C@@]1(C)O[C@@H]1CC=C(C)C [OVALICIN],7.5 µM,–,–,IC50 [4]: 10 µM
